Measurements: the NIST ThermoML archive (doi:10.1016/j.jct.2012.06.020)

Conditions: 101.33 kPa, Liquid, Vibrating tube method

C[S+](C)[O-] [dimethyl sulfoxide]
Conditions	mass density [kg/m3]
293.15 K	1100.22
298.15 K	1095.19
303.15 K	1090.16
313.15 K	1080.12
323.15 K	1070.07
333.15 K	1060.03
